Results from PubChem BioAssay (NCI).
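In this assay, cells in 96-well plates receive the compound at five concentrations for 48 hours. Endpoints are linearly interpolated between the surrounding concentrations. The concentration for 50% growth inhibition is given as GI50. TGI marks complete inhibition of growth.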

Legend:
Experiment in all cases: NCI tumour cell line growth inhibition, 48 h
[1] = system: CAKI-1 renal
[2] = system: COLO 205 colon
[3] = system: HCT-15 colon
[4] = system: IGROV1 ovarian
[5] = system: NCI-H460 lung
[6] = system: RPMI-8226 leukemia
[7] = system: SF-295 CNS
[8] = system: SK-MEL-5 melanoma
[9] = system: TK-10 renal
[10] = system: HCT-116 colon

SMILES | TGI [1] | TGI [2] | TGI [3] | TGI [4] | TGI [5] | TGI [6] | TGI [7] | TGI [8] | TGI [9] | TGI [10] | GI50 [1] | GI50 [2] | GI50 [10] | GI50 [3] | GI50 [4] | GI50 [5] | GI50 [7] | GI50 [8] | GI50 [9] | GI50 [6]
Cc1nc(-c2cccnc2)sc1C(=O)/C=C/c1cccc([N+](=O)[O-])c1 | > 100 µM | > 100 µM | > 100 µM | > 100 µM | > 100 µM | > 100 µM | > 100 µM | > 100 µM | > 100 µM |  |  |  |  |  |  |  |  |  |  | 
Cc1cc(C)n(C2=NS(=O)(=O)c3ccccc3N2C)n1 | > 100 µM | > 100 µM | > 100 µM | > 100 µM | > 100 µM |  | > 100 µM | > 100 µM | > 100 µM | > 100 µM |  |  |  |  |  |  |  |  |  | 
CCOC(=O)C1(Cc2ccc3ccccc3c2)CCCCC(=O)N1 (stereo not drawn) | > 100 µM | > 100 µM | > 100 µM | > 100 µM | > 100 µM | 58.2 µM | 35.2 µM |  | > 100 µM |  |  |  |  |  |  |  |  |  |  | 
O=C1C2=C(CCC2)Nc2cccc3ncn1c23 |  | > 100 µM | > 100 µM | > 100 µM | > 100 µM | > 100 µM | > 100 µM | > 100 µM | 75.7 µM | > 100 µM |  |  |  |  |  |  |  |  |  | 
N#Cc1c(-c2ccco2)cc(-c2ccccc2)[nH]c1=O |  | > 100 µM | > 100 µM | > 100 µM | > 100 µM | > 100 µM | > 100 µM | > 100 µM | > 100 µM | > 100 µM |  |  |  |  |  |  |  |  |  | 
COc1ccccc1NC(=O)/C(=C/c1ccccc1)C(C)=O | > 100 µM |  | > 100 µM | > 100 µM | > 100 µM | > 100 µM | 71 µM | 62 µM | > 100 µM | > 100 µM |  |  |  |  |  |  |  |  |  | 
Cc1ccccc1/C=C/C(=O)c1ccccc1 | 37.2 µM | 46.7 µM | > 10 µM | 62.1 µM | 38.7 µM | 71.4 µM |  | > 10 µM |  | 31 µM |  |  |  |  |  |  |  |  |  | 
CC(C)(C)OC(=O)NC1CCCC1=O (stereo not drawn) | > 100 µM |  |  |  | > 100 µM |  | > 100 µM | > 100 µM | > 100 µM | > 100 µM |  |  |  |  |  |  |  |  |  | 
Cc1c2ccncc2c(C)c2c1[nH]c1ccc(O)c(OCC(F)(F)F)c12 | 19.6 µM | 22.3 µM |  | 18.1 µM | 10.5 µM | 5.95 µM | 14.8 µM | 7.5 µM | 25 µM | 9.11 µM |  |  |  |  |  |  |  |  |  | 
N#C/C(=C1\SC(N=Nc2ccc(Cl)cc2)C(=O)N1c1ccccc1)c1nc2ccccc2[nH]1 (stereo not drawn) | > 100 µM | > 100 µM | > 100 µM |  | > 100 µM |  | 58.7 µM | > 100 µM | 61.6 µM | > 100 µM |  |  |  |  |  |  |  |  |  | 
CC(=O)[CH-]C(=O)c1ccccc1.CC(=O)[CH-]C(=O)c1ccccc1.CC1(C)OCC(C2OC3OC(C)(C)OC3C2[O-])O1.CC[O-].[Ti+4] (stereo not drawn) | 40.9 µM | 32.5 µM | 68 µM | 33.5 µM | 24.8 µM |  | 31.6 µM | 23.9 µM | 27 µM | 28.1 µM | 22.8 µM | 17 µM | 14.9 µM | 25.9 µM | 17.9 µM | 10.8 µM | 17.1 µM | 10.8 µM | 12.4 µM | 
c1ccc(-c2nc(N3CCCNCC3)c3nc(-c4ccccc4)oc3n2)cc1 | 3.02 µM | 3.38 µM | 2.89 µM | 3.13 µM | 3.54 µM |  | 3.25 µM | 3.18 µM | 3 µM | 3.35 µM | 1.52 µM | 1.6 µM | 1.65 µM | 1.47 µM | 1.59 µM | 1.86 µM | 1.81 µM | 1.77 µM | 1.53 µM | 
O=C(/C=C/c1cccc(O)c1)c1cccc(-n2cc(-c3ccc4ccccc4c3)[nH]c2=O)c1 |  | 4.65 µM | 4.8 µM | 2.79 µM | 3.19 µM | 6.91 µM | 3.63 µM | 2.41 µM | 8.53 µM | 1.45 µM |  | 2.09 µM | 0.407 µM | 1.56 µM | 1.33 µM | 1.67 µM | 1.44 µM | 1.16 µM | 3.45 µM | 1.67 µM
[2H]c1nc(=Nc2cc(NC(=O)C=C)c(N(C)CCN(C)C)cc2OC)[nH]c(-c2cn(C([2H])([2H])[2H])c3ccccc23)c1[2H] | 1.89 µM | 3.06 µM | 3.05 µM | 2.04 µM | 4.37 µM |  | 4.5 µM | 3 µM | 3.8 µM | 2.83 µM | 0.503 µM | 1.62 µM | 1.48 µM | 1.44 µM | 0.122 µM | 1.9 µM | 1.97 µM | 1.64 µM | 0.0802 µM | 
N.N.N.N.N.O=S(=O)([O-])S(=O)(=O)[O-].[Co+3] |  | > 100 µM | > 100 µM | > 100 µM | > 100 µM | > 100 µM | > 100 µM | > 100 µM | > 100 µM | > 100 µM |  | > 100 µM | > 100 µM | > 100 µM | > 100 µM | > 100 µM | > 100 µM | > 100 µM | > 100 µM | > 100 µM
Nc1ccccc1C(=O)C(Br)C(Br)c1ccc2c(c1)OCO2 (stereo not drawn) |  | 27.4 µM | 48.1 µM | > 100 µM | 39.2 µM | > 100 µM | > 100 µM |  | 72.7 µM | 31.1 µM |  |  |  |  |  |  |  |  |  | 
CC(C)[O-].CC(C)[O-].O=c1cccccc1[O-].O=c1cccccc1[O-].[Ti+4] | > 100 µM | > 100 µM | > 100 µM | > 100 µM |  | > 100 µM | > 100 µM | 69.8 µM | > 100 µM | > 100 µM |  |  |  |  |  |  |  |  |  | 
O=C(CC1(O)C(=O)Nc2c(Cl)ccc(Cl)c21)c1ccc(Cl)cc1Cl (stereo not drawn) | 64.2 µM | 31.7 µM | > 100 µM | 35.4 µM | 38.3 µM | 43.7 µM | 41.6 µM |  | > 100 µM | 33.1 µM |  |  |  |  |  |  |  |  |  | 
CCOC(=O)c1c(SCCN2CCOCC2)n(-c2ccccc2)c(=S)n(-c2ccccc2)c1=O |  | > 100 µM | 45.7 µM | > 100 µM | > 100 µM | 94.1 µM | 61.2 µM | 90.1 µM | > 100 µM |  |  |  |  |  |  |  |  |  |  | 
